Test system: nitrilase 1650
Experiment: Conversion of various nitriles with nitrilase 1650 (NH4 ions in supernatant, microtiter plate)
Format: biochemical, Alcaligenes faecalis 1650
Parameters: Activity: unit not given here
Details: pH 7.2
[1] = 10 mM substrate, 2 g/l dry biomass, 30° C, 2 hours

Which results are given for `CC(C#N)c1ccccc1` (stereo not shown) [Substrate 2, 2-phenylpropionitrile]?
% conversion: 70.2%; Activity: 4.1; μmol/l (amount of NH4 ions produced in the supernatant): 1001.1 µmol/L

Which “% conversion” value does the source give for `CCC(C#N)c1ccccc1` (stereo not shown) [Substrate 3, 2-phenylbutyronitrile] here?
Its value is 44.3%.

What about the Activity of the same compound?
Its Activity is 0.1.

What about the “μmol/l (amount of NH4 ions produced in the supernatant)” value (from here on “μmol/l”) of the same compound?
Its value is 24.4 µmol/L.

`N#CCc1ccccc1` [Substrate 4, benzyl cyanide] was tested. Which “% conversion” value did it give?
Its value is 100%.

What about the Activity of the same compound?
Its Activity is 9.2.

What about the “μmol/l” value of the same compound?
Its value is 2210.5 µmol/L.

Which “% conversion” value does the source give for `N#CCc1ccc(Cl)cc1` [Substrate 5, 4-chlorobenzyl cyanide] here?
Its value is 100%.

What about the Activity of the same compound?
Its Activity is 8.9.

What about the “μmol/l” value of the same compound?
Its value is 2136.3 µmol/L.

For `N#CCc1ccc(Br)cc1` [Substrate 6, 4-bromobenzyl cyanide], which “% conversion” value is on record?
The value was 100%.

And the Activity?
Its Activity is 6.2.

And the “μmol/l” value?
Its value is 1500.8 µmol/L.

How did the Activity turn out when `CCC#N` [Substrate 7, propionitrile] was run?
The Activity was 0.02.

What about the “μmol/l” value of the same compound?
The value was 4.9 µmol/L.

For `CCCCC#N` [Substrate 10, valeronitrile], which Activity is on record?
The Activity was 0.47.

What about the “μmol/l” value of the same compound?
The value was 113.4 µmol/L.

With “α-(3-heptyl)-nitro-triacetonitrile [Substrate 14]” as the compound, how does the “% conversion” value [1] read?
The value was 44.1%.

And the Activity [1]?
The Activity was 0.35.

And the “μmol/l” value (10 mM substrate, 2 g/l dry biomass, 30° C, 2 hours, average of a microtiter plate row)?
The value was 84.8 µmol/L.
